Assay results as given in patent US6699287B2, “Dermal scaffold using alkaline pre-treated chitosan matrix or alkaline pre-treated chitosan and alkaline pre-treated collagen mixed matrix” (Korea Atomic Energy Research Institute, priority 1999, dated 2004).

Test system: human dermal fibroblast cells
Assay: Cytotoxicity test of chitosan derivates in vitro (MTT)
Type: cell-based
Conditions: 48 hours after treatment
Method: 1×10^4 of human dermal fibroblast cells in 96 well plate were cultured in DMEM medium supplemented with 100 μl of 10% serum. Then, the cultured cells were treated with 5, 50, and 500 ng/ml of chitosan oligomer, CM-chitin and 3,6-S-chitin, respectively. 48 hours after treatment, MTT (3-[4,5-dimethylthiazol-2-yl]-2,5-diphenyltetrazolium bromide; Thiazolyl blue, Sigma Product No. M5655) was added thereto and then, the mixture was allowed to stand for 4 hours. After removal of the culture medium, the resultant mixture was washed with phosphate buffered saline 2-3 times and 100 μl of DMSO (dimethylsulfoxide) was added thereto. After chromogenesis, an absorbance was measured at 545 nm on each well using ELISA reader.

Row | Substance | Viability Assay Result Of Human Dermal Fibroblasts (MTT absorbance at 545 nm) (5 ng/ml) | Viability Assay Result Of Human Dermal Fibroblasts (MTT absorbance at 545 nm) (50 ng/ml) | Viability Assay Result Of Human Dermal Fibroblasts (MTT absorbance at 545 nm) (500 ng/ml)
1 | 3,6-S-chitin | 0.608 | 0.727 | 0.595
2 | CM-chitin | 0.603 | 0.630 | 0.603
3 | chitosan oligomer | 0.629 | 0.618 | 0.733
